Key:
C57BL/6J mice = assay: Composite lesion scores (geropathology grading, histology) in old mice on rapamycin diet; format: in vivo, mouse; conditions: two year-old C57BL/6J mice; rapamycin diet 14 ppm females / 42 ppm males for two months; average
Excerpt: Two year-old C57BL/6J mice were fed a diet containing rapamycin (14 ppm for females or 42 ppm for males) or a control diet for two months. […] In addition, rapamycin attenuated composite lesion scores in kidneys (FIG. 7), liver, and lungs of these mice by an average of 40, 41, and 29 percent, respectively.
Two year old C57BL/6J mice were obtained from the NIA Rodent Colony and treated with encapsulated rapamycin (Rapamycin Holdings, San Antonio Tex.) at 14 ppm for females and 42 ppm for males, or control (encapsulated only) diet for 8 weeks. Mice were sacrificed at 26 months and serum collected preceding necropsy. Ercc1^−/Δ mice were treated with Dasatinib and Quercetin as described elsewhere (see, e.g., Zhu et al., 2015 Aging cell. 14(4):644-658). Briefly, Ercc1^−/Δ mice were treated weekly with a combination of Dasatinib (5 mg/kg) and Quercetin (50 mg/kg) starting at 4-6 weeks of age. Therapeutics were administered in 10% PEG400 by oral gavage. Litters with multiple Ercc1^−/Δ mice were used to enable comparison of sibling pairs that were treated with therapeutic vs vehicle only. Mice (n=5-6 per group) were sacrificed at 16 weeks and serum collected by cardiac puncture.
Mouse tissues were collected at necropsy and placed in 10% buffered formalin for 48 hours, transferred to 70% alcohol, and subsequently processed into paraffin blocks for sectioning and hematoxylin and eosin staining. Histology slides were validated for age-related lesions by a veterinary pathologist and scored for lesion severity to create a composite lesion score for age-related renal pathology in each animal (see, e.g., Ladiges 2016 Pathobiol Aging Age Relat Dis. 6:31478).

mice, 85 weeks of age = assay: Late-life fisetin diet in aged mice: lifespan, tissue function, histopathology; format: in vivo, mouse; conditions: diet containing 500 ppm fisetin from 85 weeks of age
Procedure: At 85-weeks of age (>20 mth), male and female mice were administered a diet containing 500 ppm (500 mg/kg) fisetin or fed a control diet with no drug. n=8-9 mice per group. In the treatment group, median lifespan was increased 17% and maximum lifespan increased 12%. Log rank (Mantel-Cox) test. […] Levels of MCP-1 were measured in the serum of these mice by ELISA. n=5 mice per group. One-way ANOVA with Tukey's multiple comparison test. Values represented as the mean SEM, ***p<0.001, ****p<0.0001. Therefore, circulating levels of MCP-1 correlate with drug-induced improvements in health and lifespan (FIG. 12).

[1] = male and female mice, vs control diet

SMILES | attenuation of composite lesion score, kidneys (C57BL/6J mice) [%] | attenuation of composite lesion score, liver (C57BL/6J mice) [%] | attenuation of composite lesion score, lungs (C57BL/6J mice) [%] | age-related histopathology (mice, 85 weeks of age) | tissue function (mice, 85 weeks of age) | increase in maximum lifespan (mice, 85 weeks of age; [1]) [%] | increase in median lifespan (mice, 85 weeks of age; [1]) [%]
CO[C@H]1C[C@@H]2CC[C@@H](C)[C@@](O)(O2)C(=O)C(=O)N2CCCC[C@H]2C(=O)O[C@H]([C@H](C)C[C@@H]2CC[C@@H](O)[C@H](OC)C2)CC(=O)[C@H](C)/C=C(\C)[C@@H](O)[C@@H](OC)C(=O)[C@H](C)C[C@H](C)/C=C/C=C/C=C/1C [rapamycin] | 40 | 41 | 29 |  |  |  | 
O=c1c(O)c(-c2ccc(O)c(O)c2)oc2cc(O)ccc12 [fisetin] |  |  |  | decreased in multiple organs | improved | 12 | 17

From patent US20200338039A1, “METHODS AND MATERIALS FOR ASSESSING BIOLOGICAL AGE AND SLOWING THE PROGRESS OF EXCESSIVE BIOLOGICAL AGING” (The Scripps Research Institute, priority 2017, published 2020)
